# Data reported in ChEMBL document CHEMBL3046894, “Synthesis and Herbicidal Activity of Pyrimidinyl Salicylic and Thiosalicylic Acids” (J Pestic Sci, 1996).
# Active and inactive are the calls of the source. The rule behind the calls is not given here.
# Experiments:
# Amaranthus retroflexus [1] = experiment: Post-emergence herbicidal activity against Amaranthus retroflexus assessed as growth inhibition at 25 g a.i/10 a applied 11 days after germination as foliar spray; assay type: functional, organism-based
# Echinochloa crus-galli [2] = experiment: Post-emergence herbicidal activity against Echinochloa crus-galli (barnyard grass) assessed as growth inhibition at 25 g a.i/10 a applied 11 days after germination as foliar spray; assay type: functional, organism-based
# Echinochloa crus-galli [3] = experiment: Pre-emergence herbicidal activity against Echinochloa crus-galli (barnyard grass) assessed as growth inhibition at 25 g a.i/10 a; assay type: functional, organism-based
# Persicaria nodosa [4] = experiment: Post-emergence herbicidal activity against Persicaria nodosa assessed as growth inhibition at 25 g a.i/10 a applied 11 days after germination as foliar spray; assay type: functional, organism-based
# Cyperus iria [5] = experiment: Post-emergence herbicidal activity against Cyperus iria assessed as growth inhibition at 25 g a.i/10 a applied 11 days after germination as foliar spray; assay type: functional, organism-based
# Persicaria nodosa [6] = experiment: Pre-emergence herbicidal activity against Persicaria nodosa assessed as growth inhibition at 25 g a.i/10 a; assay type: functional, organism-based
# Chenopodium album [7] = experiment: Post-emergence herbicidal activity against Chenopodium album assessed as growth inhibition at 25 g a.i/10 a applied 11 days after germination as foliar spray; assay type: functional, organism-based
# Chenopodium album [8] = experiment: Pre-emergence herbicidal activity against Chenopodium album assessed as growth inhibition at 25 g a.i/10 a; assay type: functional, organism-based
# Cyperus iria [9] = experiment: Pre-emergence herbicidal activity against Cyperus iria assessed as growth inhibition at 25 g a.i/10 a; assay type: functional, organism-based
# Digitaria sanguinalis [10] = experiment: Post-emergence herbicidal activity against Digitaria sanguinalis (hairy crabgrass) assessed as growth inhibition at 25 g a.i/10 a applied 11 days after germination as foliar spray; assay type: functional, organism-based
# Digitaria sanguinalis [11] = experiment: Pre-emergence herbicidal activity against Digitaria sanguinalis (hairy crabgrass) assessed as growth inhibition at 25 g a.i/10 a; assay type: functional, organism-based
# Amaranthus retroflexus [12] = experiment: Pre-emergence herbicidal activity against Amaranthus retroflexus assessed as growth inhibition at 25 g a.i/10 a; assay type: functional, organism-based
# Zea mays [13] = experiment: Post-emergence phytotoxicity against Zea mays (maize) assessed as mortality at 1.6 g a.i/10 a applied 11 days after germination as foliar spray; assay type: organism-based; conditions: in vivo, other, 264 h
# Abutilon theophrasti [14] = experiment: Post-emergence herbicidal activity against Abutilon theophrasti (velvetleaf) assessed as mortality at 6.3 g a.i/10 a applied 11 days after germination as foliar spray; assay type: functional; conditions: 264 h
# Abutilon theophrasti [15] = experiment: Post-emergence herbicidal activity against Abutilon theophrasti (velvetleaf) assessed as mortality at 1.6 g a.i/10 a applied 11 days after germination as foliar spray; assay type: functional; conditions: 264 h
# Gossypium hirsutum [16] = experiment: Post-emergence phytotoxicity against Gossypium hirsutum (cotton) assessed as mortality at 1.6 g a.i/10 a applied 11 days after germination as foliar spray; assay type: organism-based; conditions: in vivo, other, 264 h
# [17] = (§1) Post-emergence phytotoxicity against Glycine max (soybean) assessed as mortality at 1.6 g a.i/10 a applied 11 days after germination as foliar spray; assay type: organism-based; conditions: in vivo, 1.6 g a.i/10 a
# Gossypium hirsutum [18] = experiment: Post-emergence phytotoxicity against Gossypium hirsutum (cotton) assessed as mortality at 6.3 g a.i/10 a applied 11 days after germination as foliar spray; assay type: organism-based; conditions: in vivo, other, 264 h
# Zea mays [19] = experiment: Post-emergence phytotoxicity against Zea mays (maize) assessed as mortality at 6.3 g a.i/10 a applied 11 days after germination as foliar spray; assay type: organism-based; conditions: in vivo, other, 264 h
# Glycine max [20] = experiment: Pre-emergence phytotoxicity against Glycine max (soybean) assessed as mortality at 1.6 g a.i/10 a; assay type: organism-based; conditions: in vivo, other
# [21] = Pre-emergence phytotoxicity against Gossypium hirsutum (cotton) assessed as mortality at 6.3 g a.i/10 a; assay type: organism-based; conditions: in vivo, 6.3 g a.i/10 a, read-out: Activity
# Xanthium strumarium [22] = experiment: Pre-emergence herbicidal activity against Xanthium strumarium (cocklebur) assessed as mortality at 6.3 g a.i/10 a; assay type: functional
# Glycine max [23] = experiment: Post-emergence phytotoxicity against Glycine max (soybean) assessed as mortality at 6.3 g a.i/10 a applied 11 days after germination as foliar spray; assay type: organism-based; conditions: in vivo, other, 264 h
# Xanthium strumarium [24] = experiment: Pre-emergence herbicidal activity against Xanthium strumarium (cocklebur) assessed as mortality at 1.6 g a.i/10 a; assay type: functional
# Zea mays [25] = experiment: Pre-emergence phytotoxicity against Zea mays (maize) assessed as mortality at 6.3 g a.i/10 a; assay type: organism-based; conditions: in vivo, other
# Gossypium hirsutum [26] = experiment: Pre-emergence phytotoxicity against Gossypium hirsutum (cotton) assessed as mortality at 1.6 g a.i/10 a; assay type: organism-based; conditions: in vivo, other
# Zea mays [27] = experiment: Pre-emergence phytotoxicity against Zea mays (maize) assessed as mortality at 1.6 g a.i/10 a; assay type: organism-based; conditions: in vivo, other
# Glycine max [28] = experiment: Pre-emergence phytotoxicity against Glycine max (soybean) assessed as mortality at 6.3 g a.i/10 a; assay type: organism-based; conditions: in vivo, other
# Glycine max [29] = experiment: as §1; assay type: organism-based; conditions: in vivo, other, 264 h
Compound,growth inhibition (GI) (Amaranthus retroflexus [1]),growth inhibition (GI) (Echinochloa crus-galli [2]),growth inhibition (GI) (Echinochloa crus-galli [3]),growth inhibition (GI) (Persicaria nodosa [4]),growth inhibition (GI) (Cyperus iria [5]),growth inhibition (GI) (Persicaria nodosa [6]),growth inhibition (GI) (Chenopodium album [7]),growth inhibition (GI) (Chenopodium album [8]),growth inhibition (GI) (Cyperus iria [9]),growth inhibition (GI) (Digitaria sanguinalis [10]),growth inhibition (GI) (Digitaria sanguinalis [11]),growth inhibition (GI) (Amaranthus retroflexus [12]),further results
COc1cc(OC)nc(Oc2cccc(-c3ccccc3)c2C(=O)O)n1,Active,Active,Active,Active,Active,Active,Active,Active,Active,Active,Active,Active,–
COc1cc(OC)nc(Oc2c(F)cccc2C(=O)O)n1,Active,Active,Active,Active,Active,Active,Active,Active,Active,inactive,Active,Active,–
CCCc1cccc(Oc2nc(OC)cc(OC)n2)c1C(=O)O,Active,Active,Active,Active,Active,Active,Active,Active,Active,Active,Active,Active,–
COc1cc(OC)nc(Oc2ccc(C(F)(F)F)cc2C(=O)O)n1,Active,inactive,inactive,inactive,inactive,inactive,inactive,inactive,inactive,inactive,inactive,inactive,–
COc1cc(OC)nc(Oc2cccc(SC)c2C(=O)O)n1,Active,Active,inactive,Active,Active,Active,Active,inactive,inactive,Active,inactive,Active,Activity (Zea mays [13]): Toxic; mortality at 63 g/ha (Abutilon theophrasti [14]): > 90%; mortality at 16 g/ha (Abutilon theophrasti [15]): > 90%; Activity (Gossypium hirsutum [16]): Toxic; mortality at 264 h [17]: > 90%; Activity (Gossypium hirsutum [18]): Toxic; Activity (Zea mays [19]): Toxic
COc1cc(OC)nc(Nc2cccc(Cl)c2C(=O)O)n1,Active,inactive,inactive,inactive,inactive,inactive,inactive,inactive,inactive,inactive,inactive,inactive,–
COc1cc(OC)nc(Sc2cccc([N+](=O)[O-])c2C(=O)O)n1,–,–,–,–,–,–,–,–,–,–,–,–,Activity (Glycine max [20]): Non-toxic; Activity (Zea mays [13]): Non-toxic; mortality [21]: < 50%; Activity (Xanthium strumarium [22]): <50%; Activity (Glycine max [23]): Toxic; Activity (Xanthium strumarium [24]): <50%; Activity (Gossypium hirsutum [16]): Non-toxic; Activity (Zea mays [25]): Toxic; Activity (Gossypium hirsutum [26]): < 50%; Activity (Zea mays [27]): Non-toxic; Activity (Glycine max [28]): Toxic; Activity (Glycine max [29]): Toxic; Activity (Gossypium hirsutum [18]): Non-toxic; Activity (Zea mays [19]): Non-toxic
